The numbers were not newly measured in patent US20100028912A1, “IMAGING USING RADIOACTIVE MONOCATIONS IN COMBINATION WITH A RECEPTOR BINDING LIGAND THAT STIMULATES THE INFLUX OF CATIONS” (BRACCO IMAGING S.P.A., priority 2006, published 2010), which cites them from elsewhere.

For one data set, the system named is Na+-K+ pump. The note with it: guinea pig pancreatic acinar cells in vitro.
The test system of data set [1] is quiescent Swiss 3T3 cells. The conditions noted are these: cells treated with Na+/K+ ATPase pump inhibitor.
Data set [2] deals with Na+-K+-2Cl- cotransporter (NKCC). The conditions noted are these: acute cell exposure; rat L6 skeletal muscle cells.
Data set [3] has as its system guinea pig tracheal smooth muscle cells. The note with it: cultured guinea pig tracheal smooth muscle cells.
The subject of data set [4] is alpha(1)-adrenoceptors (AR). The note with it: 30 μM; isolated perfused rat hearts and isolated cardiomyocytes.
Data set [5] has as its system rat vascular smooth muscle cells. The conditions noted are these: rat vascular smooth muscle cells in culture.

Regarding `CSCC[C@H](NC(=O)[C@H](Cc1ccc(OS(=O)(=O)O)cc1)NC(=O)[C@@H](N)CC(=O)O)C(=O)NCC(=O)N[C@@H](Cc1c[nH]c2ccccc12)C(=O)N[C@@H](CCSC)C(=O)N[C@@H](CC(=O)O)C(=O)N[C@@H](Cc1ccccc1)C(N)=O` [CCK-8, cholecystokinin octapeptide], in the data set on Na+-K+ pump, the “stimulation of ouabain-sensitive 86Rb+ uptake” value is “approximately 60%”. For `C[C@@H]1O[C@@H](O[C@H]2C[C@@H](O)[C@]3(CO)[C@H]4[C@H](O)C[C@]5(C)[C@@H](C6=CC(=O)OC6)CC[C@]5(O)[C@@H]4CC[C@]3(O)C2)[C@H](O)[C@H](O)[C@H]1O` [ouabain], the “effect on bombesin stimulation of 86Rb+ uptake” value in data set [1] was “virtually abolished”. As for insulin, in data set [2], the “stimulation of NKCC-mediated 86Rb+ influx” value is around 1.6 fold. Take `NCCc1c[nH]c2ccc(O)cc12` [Serotonin, 5-hydroxytryptamine]: the “uptake of 86Rb+” value in data set [3] is given as “increases”. Consider `CCCC(=O)Nc1ncnc2c1ncn2[C@@H]1O[C@@H]2COP(=O)(O)O[C@H]2[C@H]1OC(=O)CCC` [dibutyryl cAMP], for which, in the data set on Na+-K+ pump, the “increase of Na+-K+ pump activity (as measured by ouabain-sensitive 86Rb+ uptake)” value (from here on “increase of Na+-K+ pump activity”) is listed as “approximately 40%”. As to `Cn1c(=O)c2[nH]cnc2n(C)c1=O` [theophylline], the “increase of Na+-K+ pump activity” value with Na+-K+ pump is “approximately 40%”.

Regarding Secretin, the “increase of Na+-K+ pump activity” value with Na+-K+ pump was “approximately 40%”.

On to `C[N+](C)(C)CCOC(N)=O` [Carbachol], for which, in the data set on Na+-K+ pump, the “stimulation of ouabain-sensitive 86Rb+ uptake” value is reported as “approximately 60%”.

Regarding `CNC[C@H](O)c1cccc(O)c1` [phenylephrine], the “86Rb+ influx into myocardial cells” value in data set [4] is “increased”. Regarding Platelet-derived growth factor, the “influx of 86Rb” value in data set [5] is on record as “acute increase”.
